BindingDB's records for patent US12180196 (Hoffmann-La Roche, 2024)

Molecular target: Cannabinoid receptor 2 (Homo sapiens, UniProt P34972)
Assay: Radioligand Binding Assay
Procedure: The affinity of the compounds of the invention for cannabinoid CB1 receptors was determined using recommended amounts of membrane preparations (PerkinElmer) of human embryonic kidney (HEK) cells expressing the human CNR1 or CNR2 receptors in conjunction with 1.5 or 2.6 nM [3H]-CP-55,940 (Perkin Elmer) as radioligand, respectively. Binding was performed in binding buffer (50 mM Tris, 5 mM MgCl2, 2.5 mM EDTA, and 0.5% (wt/vol) fatty acid free BSA, pH 7.4 for CB1 receptor and 50 mM Tris, 5 mM MgCl2, 2.5 mM EGTA, and 0.1% (wt/vol) fatty acid free BSA, pH 7.4 for CB2 receptor) in a total volume of 0.2 ml for 1 h at 30° C. shaking. The reaction was terminated by rapid filtration through microfiltration plates coated with 0.5% polyethylenimine (UniFilter GF/B filter plate; Packard). Bound radioactivity was analyzed for Ki using nonlinear regression analysis (Activity Base, ID Business Solution, Limited), with the Kd values for [3H]CP55,940 determined from saturation experiments. The compounds of formula (I) show an excellent affinity for the CB2 receptor.

Cannabinoid receptor 2, sequence (P34972 whole entry): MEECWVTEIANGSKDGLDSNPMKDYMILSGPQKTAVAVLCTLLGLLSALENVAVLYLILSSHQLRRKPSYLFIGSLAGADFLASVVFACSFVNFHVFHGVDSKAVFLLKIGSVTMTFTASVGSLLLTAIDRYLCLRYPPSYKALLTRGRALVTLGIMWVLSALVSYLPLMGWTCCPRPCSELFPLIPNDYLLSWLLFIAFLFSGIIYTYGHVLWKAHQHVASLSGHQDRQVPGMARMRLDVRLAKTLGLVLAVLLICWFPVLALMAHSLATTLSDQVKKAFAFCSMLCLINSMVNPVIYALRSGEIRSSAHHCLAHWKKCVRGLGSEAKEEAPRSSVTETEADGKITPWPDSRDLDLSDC

CCOC(=O)C(CC)(CC)NC(=O)c1ccc(N2CC(OCF)C2)c(OCC2CC2)n1 [US12180196, Example 3]
Ki: 0.014 µM
